Measured values as given in patent US20090325259A1, “USE OF ADHESION MOLECULES AS BOND STRESS-ENHANCED NANOSCALE BINDING SWITCHES” (priority 2002, published 2009).

Assays:
[1] = test system: guinea pig red blood cells (RBCs); assay: On-slide RBC agglutination with rocking (dynamic); type: cell-based
Method: (§1) Assays of bacterial adhesion to Man1-BSA and bovine RNAseB immobilized in 96-well plates were carried out as described previously (Sokurenko et al., 1995). Briefly, Man1-BSA and bovine RNAseB were dissolved at 20 μg/ml in 0.02 M bicarbonate buffer, and 100 μl aliquots were incubated in microtiter wells for 1 hr at 37° C. The wells were then washed three times with PBS and quenched with 0.1% BSA in PBS. 3H-thymidine-labeled bacteria were added in 0.1% BSA in PBS and incubated for 40 min at 37° C. without shaking to achieve saturation, and the wells were then washed with PBS. The individual wells were subjected to scintillation counting. The density of bacteria used in all assays was 5×10^7 colony forming units per 100 μl. RBC rosette-formation assay was performed by mixing equal amounts of serially diluted bacterial suspensions (starting from OD540 nm=1.0) and a 1% suspension of RBC in U-bottom microtiter plate wells. On-slide agglutination assays were performed by mixing the suspension of RBC and bacteria on a slide surface followed by rocking at ˜3 s^−1.
(§2) Two commonly used RBC agglutination assays were performed that utilize different shear conditions. […] If no agglutination occurs, RBCs fall into a pellet in the bottom of the well (FIG. 15A), while agglutination results in a rosette of RBCs crosslinked by bacteria. […] After three minutes without rocking, the aggregate loosened (FIG. 15C).

[2] = test system: guinea pig red blood cells (RBCs); assay: RBC rosette-formation assay (static agglutination); type: cell-based; conditions: for RBC agglutination under static conditions (in words): static rosette-formation assay
Method: as §1, §2

[3] = test system: guinea pig red blood cells (RBCs); assay: Parallel plate flow chamber, RBCs on carpet of FimH-expressing E. coli; type: cell-based; conditions: for Adhesion of RBCs to bacterial carpet under low shear: 0.01 to 0.14 dynes/cm^2
Method: Bacteria-coated dishes were prepared as follows: 35 mm tissue culture dishes were incubated with 20 μg/ml RNAse B in 0.02 M bicarbonate buffer for 1 hr at 37° C. and washed three times in PBS with 0.1% BSA (PBS-BSA). The dishes were then incubated with 200 μl PBS-BSA containing 108 colony-forming units of E. coli for 1 hr at 37° C. and washed three times. […] The dishes were then placed under a Glycotech parallel plate flow chamber with a size B gasket (2.5 cm×0.25 cm×250 μm) and sealed with vacuum. A Harvard model #975 pulse-free syringe pump was used to pump fluid through the chamber. The dishes were equilibrated in the flow chamber with PBS-BSA, and a 0.1% solution of RBC was injected into the chamber, allowed to settle onto the bacterial carpet, and washed with PBS-BSA at a shear stress of about 0.5 dynes/cm^2 until all free cells had been removed from the chamber and upstream tubing. The volumetric flow was then reduced to bring the shear stress down to 0.01-0.02 dynes/cm^2, and the shear stress was stepped up 2-fold, with at least 3 min at each shear stress.
RBC movement was recorded using phase contrast microscopy with a 20× objective, a CCD camera, and Metamorph video imaging software by Universal Imaging. Videos were recorded at 1 frame every 2 s for a total of 3 min at each shear rate. The position of each RBC was tracked at 6 s intervals in these videos using Metamorph's point tracking plug-in. The average velocity for each cell was calculated from these positions over the 3 min at each shear. These were then averaged for the average velocity of all cells. Some cells detached completely at the low shear stress and moved at the fluid velocity. (A cell moving in flow near a surface has velocity approximately equal to the cell radius, 5 μm, times the shear rate, assuming it is almost touching the surface.) Since these times reflected movement without any bond detachment, these time intervals were removed from the analysis for each cell. We only analyzed cells that were attached and in the field of view at the start of the 3 min time frame. The off-rate of RBCs was calculated from the X, the percent of original RBCs remaining bound at time t, using the formula k=1/t·ln(1/X), and using t=3 min. This assumes that detachment is independent and governed by a single rate constant, and X=e−kt, so that the number of remaining RBCs decays exponentially.
To establish whether the differential pattern of RBC agglutination observed in example 1 was due to a distinct ability of shear to enhance adhesion of type I fimbriated bacteria to RBCs, we studied the adhesion of low- and high-Man1 binding variants to RBCs under well-defined shear conditions. Previous studies on the effect of shear on selectin or von Willebrand factor-mediated adhesion of lymphocytes and platelets have used flow chambers (Finger et al., 1996; Marchese et al., 1999). Using a similar approach, we immobilized bacteria expressing either FimH-f18 or FimH-j96 on the surface of a flow chamber coated with bovine 3Man-RNaseB, a model trimannose-containing substrate to which both FimH variants bind with equal affinity (see Table 1A). In brief, RBCs were allowed to bind to the bacterial carpet, and the unbound cells were removed by rinsing under moderate fluid flow shear (0.28 to 0.90 dynes/cm^2). RBCs that remained attached to the bacterial carpet were then subjected to various shear conditions.

[4] = test system: E. coli bacteria expressing f18-FimH; assay: Parallel plate flow chamber, E. coli on surfaces coated with purified components; type: binding; conditions: for Effect of shear on accumulation of E. coli on coated surface (in words): 0.12 to 20 dynes/cm^2
Method: Parallel plate flow chamber experiments. Dishes coated with purified components were prepared by incubating 35 mm tissue culture dishes with […] of either 200 mg/ml man-BSA, 200 mg/ml gal-BSA, or a 50,000-fold dilution of polyclonal anti-FimH antiserum in 0.02M bicarbonate buffer for 75 minutes at 37 C, and then washing three times with phosphate-buffered […] with 0.1% BSA (PBS-BSA). The dishes were then inserted into a 2.5 cm×0.25 cm×[…] parallel plate flow chamber (GlycoTech). Bacteria expressing f18-FimH were prepared as described previously (W. E. Thomas, E. Trintchina, M. Forero, V. Vogel, E. V. Sokurenko, Cell 109:913-23 (Jun. 28, 2002)), and brought to 108 cfu/ml in PBS-BSA. 2% alpha-monomannose was added to the PBS-BSA in the studies of surfaces coated with anti-FimH antibodies in order to inhibit any potential mannose-specific interaction between the bacteria and the carbohydrate modifications on the antibodies. This solution of bacteria was flowed through the chamber using a Harvard syringe pump at various shear rates. The bound bacteria were recorded using a Nikon inverted microscope with a 10× phase-contrast objective, a Roper Scientific high-resolution CCD camera, and MetaMorph video acquisition software. The field of view was […] with a resolution of […] per pixel. Even when 400 bacteria bound per field of view, they covered only 1% of the surface area, so that any interactions between bacteria were minimal.
Videos of bound bacteria were analyzed using MetaMorph imaging software. Total bound bacteria in an image appeared as dark spots in phase-contrast and were counted using the automated cell counting package in MetaMorph. The moving bacteria in an image were identified by subtracting an image from another taken one second earlier so that the bacteria that moved after the first image appear as dark spots that can be counted (FIG. 1, FIG. 3A, FIG. 4). This number was compared to the total number originally counted in the first image to give the fraction of bacteria that moved (FIGS. 1B 3C 3D. The movement may represent detachment or rolling. In FIG. 3B where even detached bacteria were visible due to the short shutter speed and low flow rate, bacteria were classified as detached when they moved faster than the hydrodynamic velocity (the shear rate times the bacterial radius of […]), as stationary if they moved less than one pixel (the size of the larger fluctuations in bacterial position over time that occurred with no net movement), and as rolling for anything in between.
Bacterial adhesion and accumulation is the first step in colonizing, and in many cases infecting target tissues. In order to determine the mechanism which allows bacteria to adhere to target tissues under shear, we studied the kinetics by which E. coli bacteria attach and detach from 1Man-coated surfaces, and how the attachment and detachment behavior depends on shear. Recombinant type I fimbriated E. coli bacteria were used that expressed a variant of the adhesion FimH. […] This FimH variant is found in commensal E. coli strains, including the strain F-18 used in our study. Mannosylated bovine serum albumin (1Man-BSA) was adsorbed to glass to prepare chemically controlled model surfaces that expose only 1Man in contrast to using red blood cells that present additional ligands and receptors that might interacting with E. coli. […] A suspension of E. coli cells was passed through a flow chamber coated with 1Man and the binding of bacteria to the surface under various shear conditions was determined. Using a long (2 second) camera shutter time to blur out the free floating cells, we measured the accumulation of stationary bacteria bound to the surface after a period of five minutes at a range of physiologically relevant shear stresses, from 0.12 to 20 dynes/cm^2 (FIG. 6, triangles). […] This is consistent with previous reports of poor binding of this strain to 1Man in the absence of shear.

f-18 fimbriae (FimH) = f-18 fimbriae (FimH) (Escherichia coli, UniProt P08191, N91S/S99N/V48A); conditions: 6 μm PS beads
Chain of f-18 fimbriae (FimH) (P08191 22-300 V48A/N91S/S99N): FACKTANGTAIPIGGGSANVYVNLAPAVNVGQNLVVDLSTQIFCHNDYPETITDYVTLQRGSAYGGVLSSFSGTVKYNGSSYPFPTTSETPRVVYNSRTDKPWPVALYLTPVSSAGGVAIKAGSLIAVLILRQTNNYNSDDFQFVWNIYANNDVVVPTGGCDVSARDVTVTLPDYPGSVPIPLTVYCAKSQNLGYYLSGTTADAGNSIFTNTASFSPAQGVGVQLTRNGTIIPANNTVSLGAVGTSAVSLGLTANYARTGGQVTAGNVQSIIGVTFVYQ
Chain of f-18 fimbriae (FimH) (P08190 24-167 partner): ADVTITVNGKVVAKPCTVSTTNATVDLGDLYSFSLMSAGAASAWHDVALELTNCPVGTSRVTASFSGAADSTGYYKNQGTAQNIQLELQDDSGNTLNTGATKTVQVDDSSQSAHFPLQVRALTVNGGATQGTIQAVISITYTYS
Chain of f-18 fimbriae (FimH) (P08189 21-176 partner): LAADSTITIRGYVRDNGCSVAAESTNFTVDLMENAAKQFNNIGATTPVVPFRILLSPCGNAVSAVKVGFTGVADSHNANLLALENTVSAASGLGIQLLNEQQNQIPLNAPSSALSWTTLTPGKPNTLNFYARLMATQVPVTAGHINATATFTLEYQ
Chain of f-18 fimbriae (FimH) (P04128 24-182 partner): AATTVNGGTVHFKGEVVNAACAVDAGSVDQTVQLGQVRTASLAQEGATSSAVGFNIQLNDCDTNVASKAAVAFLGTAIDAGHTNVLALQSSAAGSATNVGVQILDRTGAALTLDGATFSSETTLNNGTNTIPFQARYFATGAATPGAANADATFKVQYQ
Method: Physisorption of fimbriae to PS plates: 35 mm Coming (#430165) tissue culture dishes were incubated with purified fimbriae diluted 500 fold in 0.02M bicarbonate buffer at 37° C. for 1 hour, and then washed thrice in PBS with 0.1% BSA (PBS-BSA) to prevent nonspecific adhesion by the beads or RBCs to the dish.
Bead coating by 1Man-BSA: Polystyrene microspheres were prepared by rotating a solution of 50 μl of 2.6% beads mixed with 150 μl of 20-200 μg/ml receptor in 0.02M Bicarbonate buffer for one hour at room temperature. Then they were spun twice and resuspended in fresh PBS-BSA. They were finally diluted down to 0.1% and injected in the chamber.
Parallel plate flow chamber experiments: The coated dishes served as the bottom plate in parallel plate flow chamber from Glycotech #31-0001 (Rockville, Md.) using a silicon rubber gasket 20 mm long, 2.5 mm wide and 0.010 in thick. […] The movement of the beads and RBCs was recorded using an inverted Nikon TE 2000 microscope with a long working distance 10× phase contrast objective by means of a Roper Scientific (Duluth, Ga.) Cascade CCD camera.
Data Analysis: Images of the flow chamber were recorded every 3 seconds for 3 minutes at each shear rate. […] The expected free flowing velocity was calculated by multiplying the shear rate by the radius of the particle, assuming that it is barely touching the surface. […]

[5] = switch from 5 to 0.12 dynes/cm^2

FimH-f18: low-Man1 binding natural FimH variant from intestinal E. coli strain F18, expressed on type I fimbriated recombinant bacteria
Time after rocking was stopped within which aggregates began to dissipate ([1]; after rocking was stopped): ≤ 3 min
RBC aggregate formation in rocking assay with diluted bacteria ([1]; bacteria 10-fold diluted): still formed aggregates
RBC agglutination under static conditions (in words) [2]: unable to mediate RBC agglutination
Off-rate of RBCs from bacterial carpet ([3]; 0.14 dynes/cm^2): 0.002 min⁻¹
Off-rate of RBCs from bacterial carpet ([3]; 0.2 to 0.4 dynes/cm^2, on average): 0.1 min⁻¹
Off-rate of RBCs from bacterial carpet ([3]; 0.7 dynes/cm^2): 0.03 min⁻¹
Adhesion of RBCs to bacterial carpet under low shear [3]: bind weakly
Adhesion of RBCs to bacterial carpet under moderate shear ([3]; moderate shear, 0.28 to 0.90 dynes/cm^2): firmly adhered
Off-rate of RBCs from bacterial carpet ([3]; shear stresses above 0.2 dynes/cm^2): too low to measure

COC1O[C@H](CO)[C@@H](O)[C@H](O)[C@@H]1O (stereo partly drawn) [α-methyl-mannoside, reference compound]
Inhibition of RBC agglutination by α-methyl-mannoside ([2]; 50 mM, in all assays (static and dynamic)): inhibitable
Inhibition of original attachment of RBCs to bacteria ([3]; 50 mM): could be inhibited

galactosylated BSA: negative control galactosylated BSA; galactose is not specifically recognized by FimH
Effect of shear on accumulation of E. coli on coated surface (in words) [4]: essentially no bacteria bound at any shear

Q32L: single Q32L mutation, effect stated in the FimH-j96 background
RBC agglutination under static conditions (in words) [2]: eliminated the ability of the bacteria to agglutinate RBCs under static conditions

1Man-BSA: monomannose (1Man) conjugated to Bovine Serum Albumin
Binding of coated beads to carpet of fimbriae (in words) (f-18 fimbriae (FimH)): shear-activated binding
Shear stress at which bead velocity starts to drop (f-18 fimbriae (FimH)): 0.03 pN/μm^2
Effect of shear on accumulation of E. coli on coated surface (in words) [4]: shear enhances the adhesion
Number of initial attachments in the field of view ([4]; 0.5 dynes/cm^2): 102 attachments per minute
Number of initial attachments in the field of view ([4]; 3.6 dynes/cm^2): 64 attachments per minute
Increase of E. coli accumulation on coated surface ([4]; 5 dynes/cm^2): 100 -fold
Number of initial attachments in the field of view ([4]; 7 dynes/cm^2): 32 attachments per minute
Rolling velocity of surface-bound bacteria ([4]; at the peak of the accumulation curve): about 30 mm per second
Accumulation of E. coli on coated surface, fold higher binding ([4]; peaking at around 3-5 dynes/cm^2, five minutes): over 100 -fold
First-order rate constant for the switch from rolling to detached [4, 5]: 3 s⁻¹
First-order rate constant for the switch from stationary to rolling [4, 5]: 0.09 s⁻¹

S124A: single S124A mutation, effect stated in the FimH-j96 background
RBC agglutination under static conditions (in words) [2]: eliminated the ability of the bacteria to agglutinate RBCs under static conditions

FimH-j96: natural FimH variant of uropathogenic E. coli strain J96; differs from FimH-f18 by A27V, S70N, N78S
Stability of RBC aggregates after rocking was halted ([1]; after rocking was halted): remained stable indefinitely long
Time for RBCs to form tight clumps in dynamic rocking assay ([1]; highest concentration of bacteria (10^9 bacteria/ml)): 35 ± 2 s
Dilution of bacteria up to which RBC rosettes formed ([2]; static conditions): ≤ 8 -fold dilution
RBC agglutination under static conditions (in words) [2]: able to agglutinate RBC in static conditions
Adhesion of RBCs to bacterial carpet under low shear [3]: adhered firmly
